From US20090110720A1, “Use of compounds for the prevention of drug-induced cell toxicity” (priority 2005, published 2009)

Biological target: megalin (Oryctolagus cuniculus, UniProt Z9GY10I8Y6)
Experiment: Inhibition of gentamicin binding to immobilized megalin by surface plasmon resonance (Biacore 2000)
Details: 1 mM gentamicin co-injected; megalin purified from rabbit kidneys immobilized on chip; pH 7.4 buffer; FIG. 3; read-out: antagonist concentration at which 50% inhibition of gentamicin binding is obtained
Method: Inhibition of gentamicin binding to immobilized megalin by p-xylylene diamine was assessed by surface plasmon resonance (SPR) analysis on a Biacore 2000 instrument (Biacore, Uppsala, Sweden). Megalin purified from rabbit kidneys as described in Birn et al. (J. Biol. Chem., 1997, Vol. 272, No. 42, 26497-26504) was immobilized in a concentration of 28-40 fmol/mm^2. Samples were dissolved in 10 mM Hepes, 150 mM NaCl, 1.5 mM CaCl2, 1 mM EGTA, 0.005% Tween-20 pH 7.4. The same buffer was used as running buffer. At time zero, p-xylylene diamine at the concentrations indicated (FIG. 3) were applied to the chip and binding as expressed in relative response units (RU), i.e. the difference in response between megalin and a control flow channel, was measured. After 700 sec., 1 mM gentamicin was co-injected with buffer alone or various concentrations of p-xylylene diamine. Inhibition of gentamicin binding is scored as the difference in RU units obtained by injection of gentamicin alone and in the presence of the antagonist. Regeneration of the sensor chip after each analysis cycle was performed with 1.6 M glycine-HCl buffer pH 3.0.
50% inhibition is obtained at an antagonist concentration of about 0.1 mM.

Chain of megalin (Z9GY10I8Y6 26-4660 limits assumed): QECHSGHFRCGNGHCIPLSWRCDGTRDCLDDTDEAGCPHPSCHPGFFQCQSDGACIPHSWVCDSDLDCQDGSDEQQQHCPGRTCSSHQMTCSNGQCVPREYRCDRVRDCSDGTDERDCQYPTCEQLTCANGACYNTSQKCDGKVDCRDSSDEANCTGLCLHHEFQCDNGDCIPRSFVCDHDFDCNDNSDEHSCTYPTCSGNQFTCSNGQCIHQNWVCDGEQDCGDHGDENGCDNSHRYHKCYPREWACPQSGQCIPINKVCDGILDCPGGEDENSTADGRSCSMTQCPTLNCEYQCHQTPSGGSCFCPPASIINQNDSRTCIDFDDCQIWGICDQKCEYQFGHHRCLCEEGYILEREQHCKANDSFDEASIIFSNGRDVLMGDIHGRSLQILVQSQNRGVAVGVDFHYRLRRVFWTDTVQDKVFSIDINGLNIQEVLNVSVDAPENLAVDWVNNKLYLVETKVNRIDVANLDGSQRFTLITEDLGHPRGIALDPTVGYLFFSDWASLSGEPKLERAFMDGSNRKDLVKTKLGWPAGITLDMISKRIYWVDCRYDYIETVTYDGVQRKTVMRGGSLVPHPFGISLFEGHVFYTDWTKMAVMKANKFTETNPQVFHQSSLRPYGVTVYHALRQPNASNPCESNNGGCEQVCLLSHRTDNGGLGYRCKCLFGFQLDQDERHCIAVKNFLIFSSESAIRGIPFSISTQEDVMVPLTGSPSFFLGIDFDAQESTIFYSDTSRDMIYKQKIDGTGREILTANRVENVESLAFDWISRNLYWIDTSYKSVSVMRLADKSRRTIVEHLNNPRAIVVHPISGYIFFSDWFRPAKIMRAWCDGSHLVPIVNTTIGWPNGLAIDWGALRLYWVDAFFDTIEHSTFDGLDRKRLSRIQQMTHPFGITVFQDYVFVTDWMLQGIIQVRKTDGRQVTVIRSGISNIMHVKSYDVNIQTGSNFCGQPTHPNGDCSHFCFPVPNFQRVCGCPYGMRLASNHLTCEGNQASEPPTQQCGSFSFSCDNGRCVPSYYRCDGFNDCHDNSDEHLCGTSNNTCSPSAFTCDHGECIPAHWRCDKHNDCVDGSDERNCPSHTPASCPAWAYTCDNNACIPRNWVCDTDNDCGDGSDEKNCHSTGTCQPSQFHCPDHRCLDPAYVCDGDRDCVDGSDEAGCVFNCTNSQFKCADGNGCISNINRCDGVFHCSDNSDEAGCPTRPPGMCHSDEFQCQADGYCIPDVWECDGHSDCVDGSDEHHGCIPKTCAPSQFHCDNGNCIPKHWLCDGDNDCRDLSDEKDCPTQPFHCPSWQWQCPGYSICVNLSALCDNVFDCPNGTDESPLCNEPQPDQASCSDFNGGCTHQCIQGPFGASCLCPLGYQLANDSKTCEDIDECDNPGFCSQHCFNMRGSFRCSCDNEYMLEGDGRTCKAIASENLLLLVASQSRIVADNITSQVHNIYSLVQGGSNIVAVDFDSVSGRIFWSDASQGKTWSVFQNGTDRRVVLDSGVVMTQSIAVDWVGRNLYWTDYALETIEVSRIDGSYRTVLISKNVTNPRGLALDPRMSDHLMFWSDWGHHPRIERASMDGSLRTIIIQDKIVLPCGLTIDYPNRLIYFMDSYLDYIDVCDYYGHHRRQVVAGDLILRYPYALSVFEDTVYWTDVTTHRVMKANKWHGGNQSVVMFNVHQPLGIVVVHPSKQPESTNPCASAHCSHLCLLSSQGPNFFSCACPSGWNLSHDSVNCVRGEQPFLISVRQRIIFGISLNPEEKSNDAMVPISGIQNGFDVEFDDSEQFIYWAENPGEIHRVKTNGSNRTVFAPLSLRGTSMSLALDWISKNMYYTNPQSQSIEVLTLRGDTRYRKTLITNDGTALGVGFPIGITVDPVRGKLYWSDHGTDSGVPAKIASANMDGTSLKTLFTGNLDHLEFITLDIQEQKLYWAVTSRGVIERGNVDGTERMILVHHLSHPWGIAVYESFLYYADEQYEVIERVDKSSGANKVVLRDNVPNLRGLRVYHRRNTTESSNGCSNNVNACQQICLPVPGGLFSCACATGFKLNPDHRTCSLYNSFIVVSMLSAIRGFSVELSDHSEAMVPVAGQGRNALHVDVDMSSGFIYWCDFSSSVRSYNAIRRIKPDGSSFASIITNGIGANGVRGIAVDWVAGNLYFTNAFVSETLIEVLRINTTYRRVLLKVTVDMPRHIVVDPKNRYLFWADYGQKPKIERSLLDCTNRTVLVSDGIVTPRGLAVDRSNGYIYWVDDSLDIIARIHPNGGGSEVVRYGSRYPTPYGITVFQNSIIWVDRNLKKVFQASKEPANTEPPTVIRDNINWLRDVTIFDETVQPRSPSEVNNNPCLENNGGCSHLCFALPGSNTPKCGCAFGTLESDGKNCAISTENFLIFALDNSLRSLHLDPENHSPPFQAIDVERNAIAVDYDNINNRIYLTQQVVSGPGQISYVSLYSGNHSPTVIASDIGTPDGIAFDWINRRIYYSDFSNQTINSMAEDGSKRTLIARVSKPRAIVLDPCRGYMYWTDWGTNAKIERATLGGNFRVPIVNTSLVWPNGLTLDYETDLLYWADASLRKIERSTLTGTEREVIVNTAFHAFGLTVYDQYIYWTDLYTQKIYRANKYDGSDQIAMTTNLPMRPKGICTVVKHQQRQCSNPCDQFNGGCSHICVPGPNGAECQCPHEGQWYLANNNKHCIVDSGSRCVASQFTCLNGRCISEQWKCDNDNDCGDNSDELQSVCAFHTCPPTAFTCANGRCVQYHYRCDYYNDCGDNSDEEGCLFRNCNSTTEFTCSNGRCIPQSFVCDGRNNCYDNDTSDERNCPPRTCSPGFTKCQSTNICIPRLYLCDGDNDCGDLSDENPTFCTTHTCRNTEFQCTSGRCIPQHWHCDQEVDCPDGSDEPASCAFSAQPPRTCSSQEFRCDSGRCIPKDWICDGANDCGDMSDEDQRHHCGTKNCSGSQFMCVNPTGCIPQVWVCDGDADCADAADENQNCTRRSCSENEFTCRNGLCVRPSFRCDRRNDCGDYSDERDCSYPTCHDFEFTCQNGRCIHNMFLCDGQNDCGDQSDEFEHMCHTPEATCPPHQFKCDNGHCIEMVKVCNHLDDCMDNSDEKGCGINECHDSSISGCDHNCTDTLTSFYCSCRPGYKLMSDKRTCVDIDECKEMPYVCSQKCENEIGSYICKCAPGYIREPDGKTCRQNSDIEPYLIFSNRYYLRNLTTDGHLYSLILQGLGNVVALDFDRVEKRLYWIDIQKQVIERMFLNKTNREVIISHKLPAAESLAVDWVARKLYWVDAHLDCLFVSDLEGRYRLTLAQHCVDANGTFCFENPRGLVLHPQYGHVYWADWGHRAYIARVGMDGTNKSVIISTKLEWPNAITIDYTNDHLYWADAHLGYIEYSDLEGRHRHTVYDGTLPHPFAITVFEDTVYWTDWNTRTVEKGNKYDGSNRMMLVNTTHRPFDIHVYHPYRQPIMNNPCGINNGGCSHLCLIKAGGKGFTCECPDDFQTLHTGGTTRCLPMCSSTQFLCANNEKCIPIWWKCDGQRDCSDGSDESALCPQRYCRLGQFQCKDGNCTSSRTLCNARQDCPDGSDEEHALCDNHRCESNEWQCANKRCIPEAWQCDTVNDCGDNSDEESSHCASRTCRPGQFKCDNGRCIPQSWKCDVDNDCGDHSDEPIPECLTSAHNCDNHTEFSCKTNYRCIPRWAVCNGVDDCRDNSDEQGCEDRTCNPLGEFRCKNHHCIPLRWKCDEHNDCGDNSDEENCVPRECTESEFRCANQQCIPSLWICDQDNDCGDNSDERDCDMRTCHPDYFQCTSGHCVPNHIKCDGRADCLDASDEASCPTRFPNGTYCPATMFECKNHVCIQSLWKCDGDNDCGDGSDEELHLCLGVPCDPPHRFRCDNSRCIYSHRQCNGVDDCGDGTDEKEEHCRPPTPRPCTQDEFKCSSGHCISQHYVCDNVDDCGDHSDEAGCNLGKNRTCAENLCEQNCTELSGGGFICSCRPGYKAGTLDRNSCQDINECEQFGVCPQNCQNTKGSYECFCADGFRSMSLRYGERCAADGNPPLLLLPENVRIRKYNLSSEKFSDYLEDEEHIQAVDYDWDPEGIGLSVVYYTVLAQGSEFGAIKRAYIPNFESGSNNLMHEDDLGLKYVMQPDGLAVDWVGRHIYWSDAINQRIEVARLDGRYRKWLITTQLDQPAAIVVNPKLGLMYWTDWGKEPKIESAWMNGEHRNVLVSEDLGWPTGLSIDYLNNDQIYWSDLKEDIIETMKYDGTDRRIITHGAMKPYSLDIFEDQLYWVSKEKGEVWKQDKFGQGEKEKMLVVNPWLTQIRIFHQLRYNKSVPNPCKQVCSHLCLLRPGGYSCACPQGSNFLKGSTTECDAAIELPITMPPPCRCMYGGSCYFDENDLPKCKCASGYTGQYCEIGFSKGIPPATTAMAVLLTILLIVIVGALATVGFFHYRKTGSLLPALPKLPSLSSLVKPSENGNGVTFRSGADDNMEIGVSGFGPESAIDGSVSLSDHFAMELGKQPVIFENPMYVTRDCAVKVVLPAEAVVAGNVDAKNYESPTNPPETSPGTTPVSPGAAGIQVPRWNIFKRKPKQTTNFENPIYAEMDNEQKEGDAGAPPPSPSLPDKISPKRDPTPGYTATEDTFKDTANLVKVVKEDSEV

NCc1ccc(CN)cc1 [RC043, p-xylylene diamine]
IC50: ~100 µM
